From ChEMBL document CHEMBL4364324, “Triazole derivatives as inhibitors of Alzheimer's disease: Current developments and structure-activity relationships” (Eur J Med Chem, 2019)

Experiments:
Cholinesterase [1] = target: T1, Cholinesterase (Homo sapiens, UniProt P06276); experiment: Inhibition of BuChE (unknown origin) by Ellman's method
Beta-secretase 1 [2] = target: T2, Beta-secretase 1 (Homo sapiens, UniProt P56817); experiment: Inhibition of BACE1 (unknown origin) expressed in baculovirus-expression system using Rh-EVNLDAEFK-Quencher substrate after 90 mins by FRET assay
HCT-116 = experiment: Cytotoxicity against human HCT116 cells after 18 hrs by MTT assay; type: functional, cell-based; settings: HCT-116, 18 h
Beta-secretase 1 [3] = target: T2, Beta-secretase 1; experiment: Inhibition of BACE1 (unknown origin) at 25 uM relative to control
Acetylcholinesterase [4] = target: T3, Acetylcholinesterase (Electrophorus electricus, UniProt O42275); experiment: Inhibition of electric eel AChE using acetylthiocholine iodide as substrate preincubated for 3 mins followed by substrate addition
Cholinesterase [5] = target: T1, Cholinesterase
Cholinesterase [6] = target: T1, Cholinesterase; experiment: Inhibition of human BuChE at 100 uM using acetylthiocholine iodide as substrate after 10 secs measured at 30 s intervals for two minutes by Ellman's method relative to control
Cholinesterase [7] = target: T1, Cholinesterase; remark: listed apart in the source
Description: Inhibition of BuChE (unknown origin) using butyrylthiocholine chloride as substrate preincubated for 15 mins followed by substrate addition measured after 30 mins by Ellman's method

Acetylcholinesterase [8] = target: T3, Acetylcholinesterase; experiment: Inhibition of electric eel AChE using acetylthiocholine iodide as substrate after 15 mins by spectrophotometric analysis
Acetylcholinesterase [9] = target: T3, Acetylcholinesterase
Description: Inhibition of electric eel AChE using acetylthiocholine iodide as substrate preincubated for 10 mins followed by substrate addition measured after 15 mins by Ellman's method

Cholinesterase [10] = target: T1, Cholinesterase; experiment: Inhibition of BuChE (unknown origin) after 2 mins
Cholinesterase [11] = target: Cholinesterase (Equus caballus, UniProt P81908); experiment: Inhibition of equine serum BuChE using butyrylthiocholine iodide as substrate preincubated for 3 mins followed by substrate addition
Cholinesterase [12] = target: T1, Cholinesterase; experiment: Inhibition of BuChE (unknown origin) at 25 uM relative to control
[13] = target: Cholinesterase (Equus caballus) (UniProt P81908); experiment: Inhibition of equine serum BuChE using butyrylthiocholine iodide as substrate preincubated for 10 mins followed by substrate addition measured after 15 mins by Ellman's method relative to control
[14] = target: T4, Amyloid-beta precursor protein (Homo sapiens, UniProt P05067)
[15] = target: T4, Amyloid-beta precursor protein; experiment: Inhibition of amyloid beta (1 to 42) (unknown origin) self aggregation relative to control; settings: concentration not given here

T1 sequence (P06276 whole entry): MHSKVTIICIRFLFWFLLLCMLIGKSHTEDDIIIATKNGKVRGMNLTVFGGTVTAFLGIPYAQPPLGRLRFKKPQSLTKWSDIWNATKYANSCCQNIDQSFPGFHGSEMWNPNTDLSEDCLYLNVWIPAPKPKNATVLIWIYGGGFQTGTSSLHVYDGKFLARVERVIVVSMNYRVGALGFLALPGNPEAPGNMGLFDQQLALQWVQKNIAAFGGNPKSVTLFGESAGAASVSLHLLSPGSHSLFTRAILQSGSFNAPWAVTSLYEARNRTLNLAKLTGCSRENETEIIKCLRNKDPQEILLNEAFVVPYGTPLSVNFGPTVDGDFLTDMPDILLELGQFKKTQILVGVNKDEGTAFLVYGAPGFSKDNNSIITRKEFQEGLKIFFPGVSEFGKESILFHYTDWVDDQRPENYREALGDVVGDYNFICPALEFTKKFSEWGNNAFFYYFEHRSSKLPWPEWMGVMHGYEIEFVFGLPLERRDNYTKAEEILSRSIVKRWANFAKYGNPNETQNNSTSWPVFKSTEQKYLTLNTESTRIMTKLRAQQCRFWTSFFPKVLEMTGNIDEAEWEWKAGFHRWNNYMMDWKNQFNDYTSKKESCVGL
T4 sequence (P05067 whole entry): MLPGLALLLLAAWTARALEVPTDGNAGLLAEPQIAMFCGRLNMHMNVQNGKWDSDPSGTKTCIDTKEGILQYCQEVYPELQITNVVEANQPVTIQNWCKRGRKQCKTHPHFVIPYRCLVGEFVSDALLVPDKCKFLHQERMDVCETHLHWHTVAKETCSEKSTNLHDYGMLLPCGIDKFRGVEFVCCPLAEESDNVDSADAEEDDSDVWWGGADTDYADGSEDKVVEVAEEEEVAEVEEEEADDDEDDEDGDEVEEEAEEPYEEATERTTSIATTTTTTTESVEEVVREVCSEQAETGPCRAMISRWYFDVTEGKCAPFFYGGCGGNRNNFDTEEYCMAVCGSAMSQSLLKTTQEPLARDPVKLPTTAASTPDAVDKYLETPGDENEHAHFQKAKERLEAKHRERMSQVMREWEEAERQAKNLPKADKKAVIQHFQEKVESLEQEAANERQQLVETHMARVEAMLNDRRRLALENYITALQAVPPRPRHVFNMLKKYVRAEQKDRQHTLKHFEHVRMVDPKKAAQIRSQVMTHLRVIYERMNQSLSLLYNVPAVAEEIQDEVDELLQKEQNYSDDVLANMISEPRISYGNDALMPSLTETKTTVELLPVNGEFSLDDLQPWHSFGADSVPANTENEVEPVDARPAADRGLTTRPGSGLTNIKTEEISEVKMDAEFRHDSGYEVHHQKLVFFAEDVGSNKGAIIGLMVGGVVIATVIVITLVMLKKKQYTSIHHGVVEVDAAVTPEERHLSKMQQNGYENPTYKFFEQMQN
T3 sequence (O42275 whole entry): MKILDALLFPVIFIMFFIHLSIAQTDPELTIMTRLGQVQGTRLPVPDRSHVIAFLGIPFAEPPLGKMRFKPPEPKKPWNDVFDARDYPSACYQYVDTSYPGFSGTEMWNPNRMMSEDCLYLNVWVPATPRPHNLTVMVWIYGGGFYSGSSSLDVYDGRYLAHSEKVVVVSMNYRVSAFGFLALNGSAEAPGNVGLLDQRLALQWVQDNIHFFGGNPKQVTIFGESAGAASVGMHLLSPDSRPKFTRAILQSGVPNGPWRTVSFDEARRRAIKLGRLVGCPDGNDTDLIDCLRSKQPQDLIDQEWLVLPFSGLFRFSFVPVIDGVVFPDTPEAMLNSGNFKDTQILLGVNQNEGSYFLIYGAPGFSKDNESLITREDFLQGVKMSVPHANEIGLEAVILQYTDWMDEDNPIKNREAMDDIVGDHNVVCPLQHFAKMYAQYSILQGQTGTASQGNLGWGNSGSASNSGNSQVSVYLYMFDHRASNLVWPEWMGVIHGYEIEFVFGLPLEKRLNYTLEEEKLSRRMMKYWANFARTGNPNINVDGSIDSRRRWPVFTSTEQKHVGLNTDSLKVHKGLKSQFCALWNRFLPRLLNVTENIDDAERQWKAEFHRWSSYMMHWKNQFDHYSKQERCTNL
T2 sequence (P56817 whole entry): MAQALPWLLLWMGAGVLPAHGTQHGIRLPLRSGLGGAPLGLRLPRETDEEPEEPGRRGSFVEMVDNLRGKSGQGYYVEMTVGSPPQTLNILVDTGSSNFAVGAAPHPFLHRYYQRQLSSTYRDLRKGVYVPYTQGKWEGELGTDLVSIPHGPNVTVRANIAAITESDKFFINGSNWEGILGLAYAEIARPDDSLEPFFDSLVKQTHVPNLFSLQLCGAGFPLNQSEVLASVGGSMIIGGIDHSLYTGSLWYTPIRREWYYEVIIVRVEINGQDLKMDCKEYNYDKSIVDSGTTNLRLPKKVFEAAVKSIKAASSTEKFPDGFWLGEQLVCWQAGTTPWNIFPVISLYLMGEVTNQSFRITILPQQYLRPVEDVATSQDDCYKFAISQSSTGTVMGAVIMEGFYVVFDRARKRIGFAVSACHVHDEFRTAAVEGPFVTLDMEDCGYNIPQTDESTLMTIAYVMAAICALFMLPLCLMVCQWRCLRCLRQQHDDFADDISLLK
Sequence of Cholinesterase (Equus caballus) (P81908 whole entry): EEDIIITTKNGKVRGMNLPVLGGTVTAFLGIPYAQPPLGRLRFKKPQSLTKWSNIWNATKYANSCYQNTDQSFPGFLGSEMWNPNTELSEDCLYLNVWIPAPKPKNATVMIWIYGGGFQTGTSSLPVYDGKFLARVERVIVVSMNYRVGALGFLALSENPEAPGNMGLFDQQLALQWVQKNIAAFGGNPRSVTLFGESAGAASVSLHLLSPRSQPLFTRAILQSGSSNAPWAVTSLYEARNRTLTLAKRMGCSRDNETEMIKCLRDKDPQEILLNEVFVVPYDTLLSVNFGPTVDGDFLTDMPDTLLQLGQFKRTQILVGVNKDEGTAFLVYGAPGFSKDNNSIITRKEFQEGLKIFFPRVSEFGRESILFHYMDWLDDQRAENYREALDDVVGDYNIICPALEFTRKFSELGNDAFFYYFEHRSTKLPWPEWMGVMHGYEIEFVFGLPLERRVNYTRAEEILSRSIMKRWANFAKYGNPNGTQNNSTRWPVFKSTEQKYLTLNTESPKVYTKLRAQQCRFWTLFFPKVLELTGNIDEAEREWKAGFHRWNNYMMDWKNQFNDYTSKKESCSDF
Sequence of Cholinesterase (Equus caballus, UniProt P81908) (P81908 whole entry): as above

Molecule `Cc1nn(CC(=O)N/N=C/c2ccc(Br)cc2O)c(=O)n1-c1ccc(C(=O)N/N=C/c2ccc(Br)cc2O)cc1` has an IC50 (Cholinesterase [1]) of 0.0486 µM.
With `Clc1ccc(Cn2cc(COc3ccc(/C=N/Nc4nnc(-c5ccccc5)c(-c5ccccc5)n4)cc3)nn2)cc1` the IC50 (Beta-secretase 1 [2]) was 8.55 µM.
`O=c1oc2ccccc2c2c1cnn2Cc1cn(-c2c(Cl)cc(Cl)cc2Cl)nn1` was tested, and the IC50 (HCT-116) was 6 µM.
`Cc1nn(CC(=O)N/N=C/c2ccccc2)c(=O)n1-c1ccc(C(=O)N/N=C/c2ccccc2)cc1` was tested, and the IC50 (Cholinesterase [1]) was 0.0702 µM.
`O=C(CCCc1ccc(O)cc1)NCc1cn(C[C@@H]2Cc3c([nH]c4ccccc34)CN2)nn1` showed an inhibition (Beta-secretase 1 [3]) of 33%.
`O=C(/C=C/c1ccc(O)c(O)c1)NCc1cn(C[C@@H]2Cc3c([nH]c4ccccc34)CN2)nn1` showed an inhibition (Beta-secretase 1 [3]) of 40%.
For `O=C(NC1CCN(Cc2ccccc2)CC1)c1cc2ccc(OCc3cn(Cc4ccccc4Cl)nn3)cc2oc1=O`, the IC50 (Acetylcholinesterase [4]) was 3.29 to 29.4 µM.
Molecule `CC(C)(C)c1ccc(-c2cn(C[C@@H]3Cc4c([nH]c5ccccc45)CN3)nn2)cc1` has an inhibition (Beta-secretase 1 [3]) of 18.9%.
Molecule `CC1(C)Oc2cc3oc(=O)ccc3cc2CC1OC(=O)n1cc(CNC(=O)CCCCC2CCSS2)nn1` (stereo unspecified) has an IC50 (Cholinesterase [5]) of 5890 µM.
`Cc1cccc(Cn2cc(Cn3c4ccccc4c4ccccc43)nn2)c1` was tested, and the IC50 (Cholinesterase [6]) was > 100 µM.
`Cc1nn(CC(=O)N/N=C/c2cccc(Br)c2)c(=O)n1-c1ccc(C(=O)N/N=C/c2cccc(Br)c2)cc1` was tested, and the IC50 (Cholinesterase [1]) was 0.0937 µM.
`CN(C)CCCC1(c2ccc(F)cc2)CCc2cc(-c3nnc(-c4cccc(Cl)c4)[nH]3)ccc21` (stereo unspecified) was tested, and the IC50 (Cholinesterase [7]) was 4.52 to 9.52 µM.
In the case of `COc1cccc(Cn2cc(Cn3c4ccccc4c4ccccc43)nn2)c1`, the IC50 (Cholinesterase [6]) is reported as > 100 µM.
With `CN(C)CCCC1(c2ccc(F)cc2)CCc2cc(-c3nnc(-c4ccc(F)cc4)[nH]3)ccc21` (stereo unspecified) the IC50 (Cholinesterase [7]) was 5.31 µM.
For `COc1ccc(/C=N/NC(=O)Cn2nc(C)n(-c3ccc(C(=O)N/N=C/c4ccc(OC)cc4)cc3)c2=O)cc1`, the IC50 (Cholinesterase [1]) was 0.0486 to 0.125 µM.
For `O=C(NC1CCN(Cc2ccccc2)CC1)c1cc2ccc(OCc3cn(Cc4ccc(Cl)c(Cl)c4)nn3)cc2oc1=O`, the IC50 (Acetylcholinesterase [4]) was 3.29 to 29.4 µM.
Work on `CCn1cc(-c2nnc(O)n2Cc2ccccc2)c(=O)c2cc(Cl)c(F)cc21` yielded an IC50 (Acetylcholinesterase [8]) of 1200 µM.
Work on `CN(C)C(=O)Oc1cccc([N+](C)(C)C)c1` [NEOSTIGMINE] yielded an IC50 (Acetylcholinesterase [9]) of 16.3 µM.
With `Oc1ccc2cc(-c3cn(C[C@@H]4Cc5c([nH]c6ccccc56)CN4)nn3)ccc2c1` the inhibition (Beta-secretase 1 [3]) was 30.4%.
`Fc1ccccc1Cn1cc(Cn2c3ccccc3c3ccccc32)nn1` was tested, and the IC50 (Cholinesterase [6]) was > 100 µM.
For `CN(C)CCCC1(c2ccc(F)cc2)CCc2cc(-c3nnc(-c4ccccc4I)[nH]3)ccc21` (stereo unspecified), the IC50 (Cholinesterase [7]) was 4.52 to 9.52 µM.
In the case of `CCn1c(O)nnc1-c1cn(CC)c2ccc(C)cc2c1=O`, the IC50 (Acetylcholinesterase [8]) is reported as 1740 µM.
`O=c1ccc2ccc(OCCCCCCCn3cc(CNc4c5c(nc6ccccc46)CCCC5)nn3)cc2o1` showed an IC50 (Cholinesterase [10]) of 0.006 µM.
`O=C(NC1CCN(Cc2ccccc2)CC1)c1cc2ccc(OCc3cn(Cc4ccccc4Br)nn3)cc2oc1=O` was tested, and the IC50 (Acetylcholinesterase [4]) was 3.29 to 29.4 µM.
Molecule `Cc1cc(=O)oc2cc(OCCCCCn3cc(CNc4c5c(nc6cc(Cl)ccc46)CCCC5)nn3)ccc12` has an IC50 (Cholinesterase [10]) of 0.027 µM.
With `Cc1ccc(Cn2cc(COc3ccc4cc(C(=O)NC5CCN(Cc6ccccc6)CC5)c(=O)oc4c3)nn2)cc1C` the IC50 (Acetylcholinesterase [4]) was 1.8 µM and the IC50 (Cholinesterase [11]) was > 100 µM.
Molecule `Clc1ccc(-c2cn(C[C@@H]3Cc4c([nH]c5ccccc45)CN3)nn2)cc1Cl` has an inhibition (Beta-secretase 1 [3]) of 61.5% and an inhibition (Cholinesterase [12]) of 61.5%.
`CN(C)CCCC1(c2ccc(F)cc2)CCc2cc(-c3nnc(-c4cccc(F)c4)[nH]3)ccc21` (stereo unspecified) was tested, and the IC50 (Cholinesterase [7]) was 4.52 to 9.52 µM.
With `Cc1nn(CC(=O)N/N=C/c2ccc(Cl)cc2)c(=O)n1-c1ccc(C(=O)N/N=C/c2ccc(Cl)cc2)cc1` the IC50 (Cholinesterase [1]) was 0.0557 µM.
For `O=[N+]([O-])c1ccc(Cn2cc(COc3ccc(/C=N/Nc4nnc(-c5ccccc5)c(-c5ccccc5)n4)cc3)nn2)cc1`, the IC50 (Beta-secretase 1 [2]) was 11.4 µM.
Molecule `O=C(NC1CCN(Cc2ccccc2)CC1)c1cc2ccc(OCc3cn(Cc4ccc(F)cc4)nn3)cc2oc1=O` has an IC50 (Acetylcholinesterase [4]) of 3.29 to 29.4 µM.
In the case of `Cc1ccc(OCc2nn3c(-c4cccc(Br)c4)nnc3s2)cc1`, the IC50 (Acetylcholinesterase [9]) is reported as 0.117 µM and the inhibition [13] is reported as 50%.
In the case of `CCOC(=O)C(Cc1cn(-c2ccccc2C(F)(F)F)nn1)(Cc1cn(-c2ccccc2C(F)(F)F)nn1)NC(C)=O`, the IC50 [14] is reported as 8.06 µM and the inhibition [15] is reported as 96.9%.
`O=C(NC1CCN(Cc2ccccc2)CC1)c1cc2ccc(OCc3cn(Cc4cccc(Cl)c4Cl)nn3)cc2oc1=O` was tested, and the IC50 (Acetylcholinesterase [4]) was 3.29 to 29.4 µM.
For `COc1ccc2c(c1)C(=O)/C(=C/c1ccc(-c3cn(-c4ccnc5ccccc45)nn3)cc1)C2`, the inhibition (Cholinesterase [6]) was 0%.
Work on `Cc1nn(CC(=O)N/N=C/c2ccc(Br)cc2)c(=O)n1-c1ccc(C(=O)N/N=C/c2ccc(Br)cc2)cc1` yielded an IC50 (Cholinesterase [1]) of 0.125 µM.
With `Fc1cccc(Cn2cc(Cn3c4ccccc4c4ccccc43)nn2)c1` the IC50 (Cholinesterase [6]) was > 100 µM.
Work on `COc1cc(-c2nnc(-c3ccc4c(c3)CCC4(CCCN(C)C)c3ccc(F)cc3)[nH]2)ccc1O` (stereo unspecified) yielded an IC50 (Cholinesterase [7]) of 4.52 to 9.52 µM.
With `Cc1ccccc1Cn1cc(Cn2c3ccccc3c3ccccc32)nn1` the IC50 (Cholinesterase [6]) was > 100 µM.
Molecule `COc1cc(/C=C/C(=O)CC(=O)/C=C/c2ccc(O)c(OC)c2)ccc1O` has an inhibition [15] of 95.1%.
With `COc1ccc2c(c1)C/C(=C\c1ccc(-c3cn(-c4ccnc5ccccc45)nn3)cc1)C2=O` the inhibition (Cholinesterase [6]) was 0.2%.
In the case of `CN(C)CCCC1(c2ccc(F)cc2)CCc2cc(-c3nnc(-c4ccccc4F)[nH]3)ccc21` (stereo unspecified), the IC50 (Cholinesterase [7]) is reported as 4.52 µM.
